In ChEMBL document CHEMBL4477227, “Synthesis and antibacterial evaluation of macrocyclic diarylheptanoid derivatives” (Bioorg Med Chem Lett, 2016) one finds MIC data, which are given here for 6 compounds.

For assay [1], the system named is Mycobacterium tuberculosis. Nature of the assay: Antitubercular activity against Mycobacterium tuberculosis H37Rv by microbroth dilution method. The conditions noted are these: Mycobacterium tuberculosis, H37Rv; read-out: MIC. The format is functional. (Dilution methods test growth across graded concentrations, often in twofold steps.)
Assay [2] has as its system Bacillus anthracis. Nature of the assay: Antibacterial activity against Bacillus anthracis Sterne 34F2 by microbroth dilution method. The format is functional. The conditions noted are these: Bacillus anthracis, Sterne 34F2; read-out: MIC.
The subject of assay [3] is Enterococcus faecalis. Nature of the assay: Antibacterial activity against Enterococcus faecalis ATCC 33186 by microbroth dilution method. It counts as functional. The conditions noted are these: Enterococcus faecalis, ATCC 33186; read-out: MIC.
The subject of assay [4] is Staphylococcus aureus. Nature of the assay: Antibacterial activity against methicillin-sensitive Staphylococcus aureus ATCC 29213 by microbroth dilution method. It counts as functional. The conditions noted are these: Staphylococcus aureus, ATCC 29213; read-out: MIC.
Assay [5] relates to Staphylococcus aureus. Nature of the assay: Antibacterial activity against methicillin-resistant Staphylococcus aureus NRS70 by microbroth dilution method. The format is functional. The conditions noted are these: Staphylococcus aureus, NRS70; read-out: MIC.
The subject of assay [6] is Streptococcus pyogenes. Nature of the assay: Antibacterial activity against Streptococcus pyogenes ATCC 700294 by microbroth dilution method. It counts as functional. The conditions noted are these: Streptococcus pyogenes, ATCC 700294; read-out: MIC.
The subject of assay [7] is Streptococcus pneumoniae. Nature of the assay: Antibacterial activity against Streptococcus pneumoniae R6 by microbroth dilution method. It counts as functional. The conditions noted are these: Streptococcus pneumoniae, R6; read-out: MIC.
The subject of assay [8] is Bacillus subtilis. Nature of the assay: Antibacterial activity against Bacillus subtilis ATCC 23857 by microbroth dilution method. The format is functional. The conditions noted are these: Bacillus subtilis, ATCC 23857; read-out: MIC.
In assay [9] the test system is Acinetobacter baumannii. Nature of the assay: Antibacterial activity against Acinetobacter baumannii ATCC 19606 by microbroth dilution method. The format is functional, ATCC 19606 = CIP 70.34 = JCM 6841. The conditions noted are these: Acinetobacter baumannii, ATCC 19606 = CIP 70.34 = JCM 6841; read-out: MIC.
The test system of assay [10] is Escherichia coli. Nature of the assay: Antibacterial activity against Escherichia coli K-12 by microbroth dilution method. It counts as functional.
For assay [11], the system named is Escherichia coli. Nature of the assay: Antibacterial activity against Escherichia coli harboring TolC deletion mutant by microbroth dilution method. It counts as functional. The conditions noted are these: Escherichia coli; read-out: MIC.
For assay [12], the system named is Burkholderia cepacia. Nature of the assay: Antibacterial activity against Burkholderia cepacia ATCC 25416 by microbroth dilution method. The format is functional.
In assay [13] the test system is Klebsiella pneumoniae. Nature of the assay: Antibacterial activity against Klebsiella pneumoniae ATCC 33495 by microbroth dilution method. The format is functional.
Assay [14] relates to Proteus mirabilis. Nature of the assay: Antibacterial activity against Proteus mirabilis ATCC 25933 by microbroth dilution method. It counts as functional.
The subject of assay [15] is Proteus vulgaris. Nature of the assay: Antibacterial activity against Proteus vulgaris ATCC 33420 by microbroth dilution method. The format is functional.
Assay [16] concerns Pseudomonas aeruginosa. Nature of the assay: Antibacterial activity against Pseudomonas aeruginosa PAO1 by microbroth dilution method. It counts as functional.

Molecules are shown by their SMILES. ≈ marks a conversion by molar mass, not a printed value.

Usually MIC stands for the lowest concentration that inhibits growth of the organism.

In the case of `COc1ccc(CCNC2CCCCc3ccc(OC)c(c3)Oc3cc(ccc3OC)CC2)cc1OC` (stereo unspecified), the MIC is 100 µg/mL (≈ 198 µM) in assay [1]; greater than 100 µg/mL in assay [2]; greater than 100 µg/mL in assay [3]; greater than 100 µg/mL in [4]; greater than 100 µg/mL in assay [5]; greater than 100 µg/mL in [6]. The MIC in assay [7], in assay [8], in assay [9], in assay [10], in assay [11] and in [12] was greater than 100 µg/mL throughout. The MIC in assay [13], in [14], in assay [15] and in [16] was greater than 100 µg/mL in each case.
In the case of `COc1ccc2cc1Oc1cc(ccc1OC)CCC(N(CCO)CCO)CCCC2` (stereo unspecified), the MIC in assay [1], in assay [2], in assay [3], in assay [4], in assay [5] and in assay [6] was greater than 100 µg/mL in each case. The MIC in assay [7], in assay [8], in assay [9], in assay [10], in assay [11] and in [12] was greater than 100 µg/mL throughout. Moreover, the MIC in assay [13], in assay [14], in [15] and in assay [16] was greater than 100 µg/mL throughout.
Consider `COc1ccc2cc1Oc1cccc(c1)CCC(NCCc1ccc(F)cc1)CC2` (stereo unspecified), for which the MIC turned out to be 25 µg/mL (≈ 61.7 µM) in assay [1]; 50 µg/mL (≈ 123 µM) in [2]; 50 µg/mL (≈ 123 µM) in assay [3]; 25 µg/mL (≈ 61.7 µM) in assay [4]; 25 µg/mL (≈ 61.7 µM) in [5]; 50 µg/mL (≈ 123 µM) in [6]. Moreover, the MIC is 50 µg/mL (≈ 123 µM) in assay [7]; 25 µg/mL (≈ 61.7 µM) in [8]; 50 µg/mL (≈ 123 µM) in [9]; greater than 100 µg/mL in assay [10]; 12.5 µg/mL (≈ 30.8 µM) in assay [11]; greater than 100 µg/mL in [12]. Besides, the MIC in assay [13], in assay [14], in assay [15] and in assay [16] was greater than 100 µg/mL in each case.
Consider `COc1ccc2cc1Oc1cc(ccc1OC)CCC(NCc1ccc(C(F)(F)F)cc1)CCCC2` (stereo unspecified), for which the MIC in assay [1] is 25 µg/mL (≈ 50 µM); in assay [2], 12.5 µg/mL (≈ 25 µM); in assay [3] it was greater than 100 µg/mL; in assay [4], greater than 100 µg/mL; in assay [5], 12.5 µg/mL (≈ 25 µM); in assay [6] it was 50 µg/mL (≈ 100 µM). Besides, the MIC in assay [7] was greater than 100 µg/mL; in [8], 12.5 µg/mL (≈ 25 µM); in assay [9], greater than 100 µg/mL; in assay [10], greater than 100 µg/mL; in assay [11], 6.25 µg/mL (≈ 12.5 µM); in [12], greater than 100 µg/mL. Also, the MIC in assay [13], in assay [14], in [15] and in assay [16] was greater than 100 µg/mL each time.
On to `COc1ccc2cc1Oc1cc(ccc1OC)CCC(NCCc1ccccn1)CCCC2` (stereo unspecified), for which the MIC in assay [1] is 100 µg/mL (≈ 224 µM); in assay [2], greater than 100 µg/mL; in assay [3] it was greater than 100 µg/mL; in [4] it was greater than 100 µg/mL; in assay [5], greater than 100 µg/mL; in assay [6], greater than 100 µg/mL. For the same compound, the MIC in assay [7] is 100 µg/mL (≈ 224 µM); in assay [8], 100 µg/mL (≈ 224 µM); in assay [9], greater than 100 µg/mL; in assay [10], greater than 100 µg/mL; in [11], 100 µg/mL (≈ 224 µM); in assay [12] it was greater than 100 µg/mL. For the same compound, the MIC in [13], in assay [14], in assay [15] and in [16] was greater than 100 µg/mL in each case.
As to `COc1ccc2cc1Oc1cc(ccc1OC)CCC(OC(=O)NCCc1ccccc1)CCCC2` (stereo unspecified), the MIC in assay [1], in assay [2], in assay [3], in assay [4], in [5] and in [6] was greater than 100 µg/mL each time. The MIC in assay [7], in assay [8], in assay [9], in assay [10], in [11] and in assay [12] was greater than 100 µg/mL in each case. Besides, the MIC in assay [13], in assay [14], in assay [15] and in assay [16] was greater than 100 µg/mL throughout.
